# Measured values as given in patent US20160367623A1, “AGONISTS OF GUANYLATE CYCLASE USEFUL FOR THE TREATMENT OF GASTROINTESTINAL DISORDERS, INFLAMMATION, CANCER AND OTHER DISORDERS” (priority 2015, published 2016).
# Bridge positions count the residues as written; N and C are the ends. Ends that are not written are not given here.
# Tested on: patients with chronic idiopathic constipation (CIC)
# Assay: Second phase 3 CIC trial: change from baseline in CSBMs/week
# Assay type: in vivo, human
# Settings: All Randomized (includes Duplicate Patients)
# [1] = 3 mg, overall average estimate across the 12-week treatment period
substance,measurement,setting,value
"Asn^1-Asp^2-Glu^3-Cys^4-Glu^5-Leu^6-Cys^7-Val^8-Asn^9-Val^10-Ala^11-Cys^12-Thr^13-Gly^14-Cys^15-Leu^16 (NDECELCVNVACTGCL; disulfide 4-12, 7-15) [Plecanatide, uroguanylin analogue, guanylate cyclase-C agonist; (C4:C12, C7:C15) bicycle peptide]","Change from Baseline in CSBMs, Difference from Placebo","3 mg, Post-Treatment Week 13",0.43 CSBMs/week
same,"Change from Baseline in CSBMs, LS Mean (SE)","3 mg, Post-Treatment Week 13",1.91 (0.131) CSBMs/week
same,"Change from Baseline in CSBMs, Mean (SD)","3 mg, Post-Treatment Week 13",1.87 (2.717) CSBMs/week
same,"Change from Baseline in CSBMs, Difference from Placebo","3 mg, Post-Treatment Week 14",0.40 CSBMs/week
same,"Change from Baseline in CSBMs, LS Mean (SE)","3 mg, Post-Treatment Week 14",1.78 (0.133) CSBMs/week
same,"Change from Baseline in CSBMs, Mean (SD)","3 mg, Post-Treatment Week 14",1.75 (2.596) CSBMs/week
same,"Change from Baseline in CSBMs, Difference from Placebo","3 mg, Week 1",0.90 CSBMs/week
same,"Change from Baseline in CSBMs, LS Mean (SE)","3 mg, Week 1",1.72 (0.147) CSBMs/week
same,"Change from Baseline in CSBMs, Mean (SD)","3 mg, Week 1",1.75 (2.737) CSBMs/week
same,"Change from Baseline in CSBMs, Difference from Placebo","3 mg, Week 2",0.87 CSBMs/week
same,"Change from Baseline in CSBMs, LS Mean (SE)","3 mg, Week 2",1.83 (0.147) CSBMs/week
same,"Change from Baseline in CSBMs, Mean (SD)","3 mg, Week 2",1.82 (2.956) CSBMs/week
same,"Change from Baseline in CSBMs, Difference from Placebo","3 mg, Week 3",0.77 CSBMs/week
same,"Change from Baseline in CSBMs, LS Mean (SE)","3 mg, Week 3",1.94 (0.147) CSBMs/week
same,"Change from Baseline in CSBMs, Mean (SD)","3 mg, Week 3",1.94 (3.084) CSBMs/week
same,"Change from Baseline in CSBMs, Difference from Placebo","3 mg, Week 4",0.95 CSBMs/week
same,"Change from Baseline in CSBMs, LS Mean (SE)","3 mg, Week 4",2.17 (0.148) CSBMs/week
same,"Change from Baseline in CSBMs, Mean (SD)","3 mg, Week 4",2.20 (3.352) CSBMs/week
same,"Change from Baseline in CSBMs, Difference from Placebo","3 mg, Week 5",0.87 CSBMs/week
same,"Change from Baseline in CSBMs, LS Mean (SE)","3 mg, Week 5",2.30 (0.149) CSBMs/week
same,"Change from Baseline in CSBMs, Difference from Placebo","3 mg, Week 6",1.00 CSBMs/week
same,"Change from Baseline in CSBMs, LS Mean (SE)","3 mg, Week 6",2.30 (0.149) CSBMs/week
same,"Change from Baseline in CSBMs, Difference from Placebo","3 mg, Week 7",0.82 CSBMs/week
same,"Change from Baseline in CSBMs, LS Mean (SE)","3 mg, Week 7",2.28 (0.150) CSBMs/week
same,"Change from Baseline in CSBMs, Difference from Placebo","3 mg, Week 8",1.01 CSBMs/week
same,"Change from Baseline in CSBMs, LS Mean (SE)","3 mg, Week 8",2.49 (0.150) CSBMs/week
same,"Change from Baseline in CSBMs, Difference from Placebo","3 mg, Week 9",0.93 CSBMs/week
same,"Change from Baseline in CSBMs, LS Mean (SE)","3 mg, Week 9",2.46 (0.150) CSBMs/week
same,"Change from Baseline in CSBMs, Difference from Placebo","3 mg, Week 10",0.84 CSBMs/week
same,"Change from Baseline in CSBMs, LS Mean (SE)","3 mg, Week 10",2.46 (0.150) CSBMs/week
same,"Change from Baseline in CSBMs, Difference from Placebo","3 mg, Week 11",0.96 CSBMs/week
same,"Change from Baseline in CSBMs, LS Mean (SE)","3 mg, Week 11",2.53 (0.151) CSBMs/week
same,"Change from Baseline in CSBMs, Difference from Placebo","3 mg, Week 12",0.95 CSBMs/week
same,"Change from Baseline in CSBMs, LS Mean (SE)","3 mg, Week 12",2.58 (0.151) CSBMs/week
same,"Change from Baseline in CSBMs, Difference from Placebo",[1],0.91 CSBMs/week
same,"Change from Baseline in CSBMs, LS Mean (SE)",[1],2.25 (0.129) CSBMs/week
same,"Change from Baseline in CSBMs, Difference from Placebo","6 mg, Post-Treatment Week 13",0.16 CSBMs/week
same,"Change from Baseline in CSBMs, LS Mean (SE)","6 mg, Post-Treatment Week 13",1.64 (0.130) CSBMs/week
same,"Change from Baseline in CSBMs, Mean (SD)","6 mg, Post-Treatment Week 13",1.59 (2.376) CSBMs/week
same,"Change from Baseline in CSBMs, Difference from Placebo","6 mg, Post-Treatment Week 14",0.30 CSBMs/week
same,"Change from Baseline in CSBMs, LS Mean (SE)","6 mg, Post-Treatment Week 14",1.67 (0.133) CSBMs/week
same,"Change from Baseline in CSBMs, Mean (SD)","6 mg, Post-Treatment Week 14",1.62 (2.588) CSBMs/week
same,"Change from Baseline in CSBMs, Difference from Placebo","6 mg, Week 1",0.88 CSBMs/week
same,"Change from Baseline in CSBMs, LS Mean (SE)","6 mg, Week 1",1.70 (0.146) CSBMs/week
same,"Change from Baseline in CSBMs, Mean (SD)","6 mg, Week 1",1.71 (2.870) CSBMs/week
same,"Change from Baseline in CSBMs, Difference from Placebo","6 mg, Week 2",0.85 CSBMs/week
same,"Change from Baseline in CSBMs, LS Mean (SE)","6 mg, Week 2",1.81 (0.146) CSBMs/week
same,"Change from Baseline in CSBMs, Mean (SD)","6 mg, Week 2",1.83 (3.118) CSBMs/week
same,"Change from Baseline in CSBMs, Difference from Placebo","6 mg, Week 3",0.65 CSBMs/week
same,"Change from Baseline in CSBMs, LS Mean (SE)","6 mg, Week 3",1.81 (0.147) CSBMs/week
same,"Change from Baseline in CSBMs, Mean (SD)","6 mg, Week 3",1.83 (2.927) CSBMs/week
same,"Change from Baseline in CSBMs, Difference from Placebo","6 mg, Week 4",0.80 CSBMs/week
same,"Change from Baseline in CSBMs, LS Mean (SE)","6 mg, Week 4",2.02 (0.147) CSBMs/week
same,"Change from Baseline in CSBMs, Difference from Placebo","6 mg, Week 5",0.50 CSBMs/week
same,"Change from Baseline in CSBMs, LS Mean (SE)","6 mg, Week 5",1.93 (0.147) CSBMs/week
same,"Change from Baseline in CSBMs, Difference from Placebo","6 mg, Week 6",0.91 CSBMs/week
same,"Change from Baseline in CSBMs, LS Mean (SE)","6 mg, Week 6",2.21 (0.148) CSBMs/week
same,"Change from Baseline in CSBMs, Difference from Placebo","6 mg, Week 7",0.81 CSBMs/week
same,"Change from Baseline in CSBMs, LS Mean (SE)","6 mg, Week 7",2.27 (0.148) CSBMs/week
same,"Change from Baseline in CSBMs, Difference from Placebo","6 mg, Week 8",0.81 CSBMs/week
same,"Change from Baseline in CSBMs, LS Mean (SE)","6 mg, Week 8",2.29 (0.148) CSBMs/week
same,"Change from Baseline in CSBMs, Difference from Placebo","6 mg, Week 9",0.81 CSBMs/week
same,"Change from Baseline in CSBMs, LS Mean (SE)","6 mg, Week 9",2.34 (0.149) CSBMs/week
same,"Change from Baseline in CSBMs, Difference from Placebo","6 mg, Week 10",0.85 CSBMs/week
same,"Change from Baseline in CSBMs, LS Mean (SE)","6 mg, Week 10",2.47 (0.149) CSBMs/week
same,"Change from Baseline in CSBMs, Difference from Placebo","6 mg, Week 11",0.83 CSBMs/week
same,"Change from Baseline in CSBMs, LS Mean (SE)","6 mg, Week 11",2.40 (0.149) CSBMs/week
same,"Change from Baseline in CSBMs, Difference from Placebo","6 mg, Week 12",0.86 CSBMs/week
same,"Change from Baseline in CSBMs, LS Mean (SE)","6 mg, Week 12",2.49 (0.150) CSBMs/week
same,"Change from Baseline in CSBMs, Difference from Placebo","6 mg, overall average estimate across the 12-week treatment period",0.80 CSBMs/week
